Source: the supplement of paper PMC5908809

Assays:
[1] = system: normal NK cells expanded with K562-aAPC; assay: percent inhibition of viability; higher = more inhibition; conditions: 72 h, IL-2 2.5 ng/mL
Method: (§1)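 Drug sensitivity and resistance testing on K562-aAPC-expanded normal NK cells: 5 concentrations (10-fold steps over a 10,000-fold range), 72 h at 37 °C, viability by CellTiter-Glo normalised to DMSO and benzethonium chloride controls; DSS from the fitted curve.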

[2] = system: normal primary NK cells, pool 2 (3 donors) (IL-2 2.5 ng/mL); assay: drug sensitivity score (DSS) (DSS units); higher = more sensitive; extreme values may be limits of the assay; conditions: 72 h
IMC-1 (IL-2 20 ng/mL) [3] = assay: as above; conditions: 72 h
[4] = system: normal primary NK cells, pool 3 (3 donors) (IL-2 2.5 ng/mL); assay: as above; conditions: 72 h
[5] = system: normal primary NK cells, pool 2 (3 donors) (IL-2 2.5 ng/mL); assay: percent inhibition of viability; higher = more inhibition; conditions: 72 h
IMC-1 (IL-2 20 ng/mL) [6] = assay: as above; conditions: 72 h
[7] = system: normal primary NK cells, pool 3 (3 donors) (IL-2 2.5 ng/mL); assay: as above; conditions: 72 h
[8] = system: normal NK cells expanded with K562-aAPC; assay: drug sensitivity score (DSS) (DSS units); higher = more sensitive; extreme values may be limits of the assay; conditions: 72 h; IL-2 2.5 ng/mL
Method: as §1

KHYG-1 (IL-2 2.5 ng/mL) [9] = assay: as above; conditions: 72 h
NK-92 (IL-2 2.5 ng/mL) [10] = assay: as above; conditions: 72 h
SNK-6 (IL-2 2.5 ng/mL) [11] = assay: as above; conditions: 72 h
NKL (IL-2 2.5 ng/mL) [12] = assay: as above; conditions: 72 h
[13] = system: normal primary NK cells, pool 1 (3 donors) (IL-2 2.5 ng/mL); assay: as above; conditions: 72 h
[14] = system: normal primary NK cells, pool 1 (3 donors), resting (IL-2 0 ng/mL); assay: as above; conditions: 72 h
KAI3 (IL-2 2.5 ng/mL) [15] = assay: as above; conditions: 72 h
DERL-7 (IL-2 2.5 ng/mL) [16] = assay: as above; conditions: 72 h
YT (IL-2 2.5 ng/mL) [17] = assay: as above; conditions: 72 h
NK-YS (IL-2 2.5 ng/mL) [18] = assay: as above; conditions: 72 h
KHYG-1 (IL-2 2.5 ng/mL) [19] = assay: percent inhibition of viability; higher = more inhibition; conditions: 72 h
NK-92 (IL-2 2.5 ng/mL) [20] = assay: as above; conditions: 72 h
SNK-6 (IL-2 2.5 ng/mL) [21] = assay: as above; conditions: 72 h
NKL (IL-2 2.5 ng/mL) [22] = assay: as above; conditions: 72 h
[23] = system: normal primary NK cells, pool 1 (3 donors) (IL-2 2.5 ng/mL); assay: as above; conditions: 72 h
[24] = system: normal primary NK cells, pool 1 (3 donors), resting (IL-2 0 ng/mL); assay: as above; conditions: 72 h
KAI3 (IL-2 2.5 ng/mL) [25] = assay: as above; conditions: 72 h
DERL-7 (IL-2 2.5 ng/mL) [26] = assay: as above; conditions: 72 h
YT (IL-2 2.5 ng/mL) [27] = assay: as above; conditions: 72 h
NK-YS (IL-2 2.5 ng/mL) [28] = assay: as above; conditions: 72 h

Cc1cnc(Nc2ccc(OCCN3CCCC3)cc2)nc1Nc1cccc(S(=O)(=O)NC(C)(C)C)c1 [Fedratinib] (max concentration tested 10000 nM)
percent inhibition of viability [%]
Conditions	1 nM	10 nM	100 nM	1000 nM	10000 nM
IMC-1 (IL-2 20 ng/mL) [6]	-6.81	-6.37	-28.8	55	101
[1]	-1.65	-2.82	11.2	73.8	101
[5]	-1.22	-4.41	13.2	72.5	100
[7]	-3.74	-2.87	15.8	68.8	100

Conditions	drug sensitivity score
IMC-1 (IL-2 20 ng/mL) [3]	12.1
[2]	15.3
[4]	14.9
[8]	15.3

C[C@]12CC[C@@H]3c4ccc(OC(=O)N(CCCl)CCCl)cc4CC[C@H]3[C@@H]1CC[C@@H]2O [Estramustine] (max concentration tested 10000 nM)
percent inhibition of viability [%]
Conditions	1 nM	10 nM	100 nM	1000 nM	10000 nM
IMC-1 (IL-2 20 ng/mL) [6]	-0.43	-1.35	-3.43	-6.09	-6.87
[1]	-5.93	-3.58	-7.28	-7.29	-6.53
[5]	10	-2.77	-6.62	-4.76	-8.48
[7]	-8.4	-4.19	-7.49	-10.1	-9.53

Conditions	drug sensitivity score
IMC-1 (IL-2 20 ng/mL) [3]	0
[2]	0
[4]	0
[8]	0

O=C(O)C1(C(=O)O)CCC1.[NH2-].[NH2-].[Pt+2] [Carboplatin] (max concentration tested 100000 nM)
percent inhibition of viability [%]
Conditions	10 nM	100 nM	1000 nM	10000 nM	100000 nM
IMC-1 (IL-2 20 ng/mL) [6]	-6.21	-0.67	1.27	61.7	100
[1]	-8.39	-5.27	0.62	19.3	100
[5]	1.54	-0.94	13	16.1	60.8
[7]	-8.77	-1.51	10.8	18.1	64.7

Conditions	drug sensitivity score
IMC-1 (IL-2 20 ng/mL) [3]	12.8
[2]	5.27
[4]	5.79
[8]	8.66

Nc1nc2[nH]cc(CCc3ccc(C(=O)N[C@@H](CCC(=O)O)C(=O)O)cc3)c2c(=O)[nH]1 [Pemetrexed] (max concentration tested 10000 nM)
percent inhibition of viability [%]
Conditions	1 nM	10 nM	100 nM	1000 nM	10000 nM
IMC-1 (IL-2 20 ng/mL) [6]	-2.55	-0.76	27.5	93	94.2
[1]	-3.65	-7.62	29.1	32.5	32.7
[5]	-0.42	-8.75	-3.95	-3.15	-2.1
[7]	-6.87	-6.65	-7.52	-11.4	-7.17

Conditions	drug sensitivity score
IMC-1 (IL-2 20 ng/mL) [3]	20.9
[2]	0
[4]	0
[8]	8.95

COc1cc(C(=O)O)ccc1NC(=O)[C@@H]1N[C@@H](CC(C)(C)C)[C@](C#N)(c2ccc(Cl)cc2F)[C@H]1c1cccc(Cl)c1F [Idasanutlin] (max concentration tested 10000 nM)
percent inhibition of viability [%]
Conditions	1 nM	10 nM	100 nM	1000 nM	10000 nM
IMC-1 (IL-2 20 ng/mL) [6]	-3	0.8	-0.27	12.7	40.4
[1]	6.65	13.4	39.6	95.2	101
[5]	-8.25	-4.67	32.8	82.7	97.8
[7]	-6.26	-3.17	33.5	68.8	95.6

Conditions	drug sensitivity score
IMC-1 (IL-2 20 ng/mL) [3]	3.88
[2]	19.3
[4]	17
[8]	21.9

Cc1cnc(Nc2ccc(OCCN3CCCC3)cc2)nc1Nc1cccc(S(=O)(=O)NC(C)(C)C)c1 (max concentration tested 10000 nM)
Conditions	drug sensitivity score
DERL-7 (IL-2 2.5 ng/mL) [16]	18.8
KAI3 (IL-2 2.5 ng/mL) [15]	19.8
KHYG-1 (IL-2 2.5 ng/mL) [9]	19
NK-92 (IL-2 2.5 ng/mL) [10]	10.2
NK-YS (IL-2 2.5 ng/mL) [18]	14.6
NKL (IL-2 2.5 ng/mL) [12]	22.6
SNK-6 (IL-2 2.5 ng/mL) [11]	12.4
YT (IL-2 2.5 ng/mL) [17]	11.8
[13]	18.2
[14]	12.3

percent inhibition of viability [%]
Conditions	DERL-7 (IL-2 2.5 ng/mL) [26]	KAI3 (IL-2 2.5 ng/mL) [25]	KHYG-1 (IL-2 2.5 ng/mL) [19]	NK-92 (IL-2 2.5 ng/mL) [20]	NK-YS (IL-2 2.5 ng/mL) [28]	NKL (IL-2 2.5 ng/mL) [22]	SNK-6 (IL-2 2.5 ng/mL) [21]	YT (IL-2 2.5 ng/mL) [27]	[23]	[24]
1 nM	2.35	-2.12	-4.97	-22	-4.69	-6.46	-5	-4.96	2.15	-0.59
10 nM	0.3	8.65	-1.52	-8.95	1.18	3.43	-10.1	-1.05	0.15	16
100 nM	26.8	26.5	7.04	-15.3	10.9	50.6	-13.7	6.19	24.1	14.1
1000 nM	84.8	90.3	99.4	33	68.9	83.5	58.4	51.3	83	51.8
10000 nM	101	108	108	106	108	109	101	107	99.8	96.5
